Results published in patent US6287840A (Axys Pharmaceuticals, Inc., priority 1999, dated 2001).
pKi: −log10 of the molar value. Peptide text beside a SMILES is read from it. * marks the point of attachment. X1 = CS(=O)(=O)C=CC(CC(=O)O)N*

Experiments:
[1] = biological target: T1, Cathepsin B from human placenta (Homo sapiens, UniProt P07858); experiment: Inhibition of cathepsin B, Z-Arg-Arg-AMC fluorescence progress curves; type: biochemical; details: for kobs /[I]* (approximate second-order inactivation constant): values marked *; for kobs /[I]* (approximate second-order inactivation constant) / k/KI (kirr/KI): 25° C., pH 6.2; for k/KI (kirr/KI): values without asterisk
T1 construct: Cathepsin B from human placenta, obtained from Sigma; purchased Sigma; host or cells: human placenta (tissue)
Method: Stock solutions of the various inhibitors (10 mM) were made in DMF; dilutions were made in the same solvent. Cathepsin B from human placenta, obtained from Sigma, was approximately 10 nM in the assay. The assay buffer contained 50 mM phosphate at pH 6.2, 2.5 mM dithiothreitol (DTT), and 2.5 mM ethylenediaminetetraacetic acid (EDTA). The substrate for cathepsin B was 50 μM Z-Arg-Arg-AMC (carbobenzyloxyarginylarginylaminomethylcoumarin). The assays were initiated at 25° C. by addition of enzyme to 2 mL of assay buffer containing the substrate and the various inhibitors (30-0.001 (μM). The increase in fluorescence at 460 nm with excitation at 380 nm was followed with time, and the assay was linear throughout the range observed. Inactivation of cathepsin B was indicated by a downward curve in the increase in fluorescence with time. In the absence of inhibitors, the enzymatic production of free AMC was linear throughout the time course of inactivation examined. Data points were collected over at least 3 half-times of inactivation, and in duplicate. The inhibition progress curves were analyzed using non-linear curve fitting software to compute the kobs values. Approximate second-order inactivation constants (kobs /[I]) were calculated for all compounds. For selected inhibitors, plots of 1/[I] vs. 1/kobs yielded the true constants kirr, KI, and kirr /KI, and were corrected for the presence of substrate by dividing KI (app.) by {1+[S]/Km }.

[2] = biological target: T2, Cloned cathepsin S (Homo sapiens, UniProt P25774); experiment: Inhibition of cathepsin S, Z-Val-Val-Arg-AMC fluorescence progress curves; type: biochemical; details: for kobs /[I]* (approximate second-order inactivation constant) / kinact/KI: values marked *; for kinact/KI: read-out: kobs /[I]* (approximate second-order inactivation constant)
T2 construct: made in house
Method: Stock solutions of the various inhibitors (10 mM) were made in DMF; dilutions were made in the same solvent. Cloned cathepsin S, (see Bromme et al., J. Biol. Chem. 268(&): 4832-4838 (1993)) was less than 1 nM in the assay. The assay buffer contained 100 mM phosphate at pH 6.5, 0.01% Triton, 2.5 mM dithiothreitol (DTT), and 2.5 mM ethylenediaminetetraacetic acid (EDTA). The substrate for cathepsin S was 10 μM Z-Val-Val-Arg-AMC (carbobenzyloxyvalinylvalinylarginylaminomethylcoumarin). The assays were initiated at 25° C. by addition of enzyme to 2 mL of assay buffer containing the substrate and the various inhibitors (30-0.001 μM). The increase in fluorescence at 460 nm with excitation at 380 nm was followed with time. Inactivation of cathepsin S was indicated by a downward curve in the increase in fluorescence with time. In the absence of inhibitors, the enzymatic production of free AMC was linear throughout the time course of inactivation examined. Data points were collected over at least 3 half-times of inactivation. The inhibition progress curves were analyzed using non-linear curve fitting software to compute the kobs values. Approximate second-order inactivation constants (kobs /[I]) were calculated for all compounds. For selected inhibitors, plots of 1/[I] vs. 1/kobs yielded the true constants kirr, KI, and kirr /KI, and were corrected for the presence of substrate by dividing KI (app.) by {1+[S]/Km}.

[3] = tested on: Leishmania donovani amastigote infected mouse peritoneal macrophages; experiment: In vitro antiprotozoal activity, Leishmania donovani; type: cell-based; parameters: key to percentage inhibition, L. donovani: the term "T" indicates the molecule to have displayed cytotoxicity
Method: (§1) In this table, the in vitro antiprotozoal activities of the indicated compounds were measured as percentage inhibition of Leishmania donovani amastigote infecteda mouse peritoneal macrophages, Trypanosoma cruzi amastigote infected macrophages, and Trypanosoma brucei extracellular bloodstream forms.

[4] = tested on: Trypanosoma cruzi amastigote infected macrophages; experiment: In vitro antiprotozoal activity, Trypanosoma cruzi; type: cell-based
Method: as §1

[5] = tested on: Trypanosoma brucei extracellular bloodstream forms; experiment: In vitro antiprotozoal activity, Trypanosoma brucei; type: cell-based
Method: as §1

[6] = biological target: T3, Cathepsin L from rat liver (Rattus norvegicus, UniProt P07154); experiment: Inhibition of cathepsin L, Z-Phe-Arg-AMC fluorescence progress curves; type: biochemical; details: for kobs /[I]* (approximate second-order inactivation constant): values marked *; for kobs /[I]* (approximate second-order inactivation constant) / k/KI (kirr/KI): 25° C., pH 6.2; for pKi: corrected for substrate; for k/KI (kirr/KI): values without asterisk
T3 construct: Cathepsin L from rat liver; from tissue; host or cells: rat liver
Method: (§2) Stock solutions of the various inhibitors (10 mM) were made in DMF; dilutions were made in the same solvent. Cathepsin L from rat liver, (see Mason et al., Biochem. J. 226:233-241 (1985)) was approximately 1 nM in the assay. The assay buffer contained 50 mM phosphate at pH 6:2, 2.5 mM dithiothreitol (DTT), and 2.5 mM ethylenediaminetetraacetic acid (EDTA). The substrate for cathepsin L was 5 μM Z-Phe-Arg-AMC (carbobenzyloxyphenylalanylarginylaminomethylcoumarin). The assays were initiated at 25° C. by addition of enzyme to 2 mL of assay buffer containing the substrate and the various inhibitors (30-0.001 μM). The increase in fluorescence at 460 nm with excitation at 380 nm was followed with time. Inactivation of cathepsin L was indicated by a downward curve in the increase in fluorescence with time. In the absence of inhibitors, the enzymatic production of free AMC was linear throughout the time course of inactivation examined. Data points were collected over at least 3 half-times of inactivation. The inhibition progress curves were analyzed using non-linear curve fitting software to compute the kobs values. Approximate second-order inactivation constants (kobs /[I]) were calculated for all compounds. For selected inhibitors, plots of 1/[I] vs. 1/kobs yielded the true constants kirr, KI, and kirr/KI and were corrected for the presence of substrate by dividing KI (app.) by (1+[S]/Km).

[7] = biological target: cruzain, from T. cruzi (Trypanosoma cruzi, UniProt P25779); experiment: Inhibition of cruzain, as for cathepsin L; type: biochemical; details: for kobs /[I]* (approximate second-order inactivation constant): values marked *
Method: as §2
Inhibition of cruzain, from T. cruzi, (see Eakin et at., J. Biol. Chem. 268(9): 6115-6118 (1993)) proceeded exactly as for cathepsin L, outlined above, using an enzyme concentration of 1 nM.

T2 sequence (P25774 115-331): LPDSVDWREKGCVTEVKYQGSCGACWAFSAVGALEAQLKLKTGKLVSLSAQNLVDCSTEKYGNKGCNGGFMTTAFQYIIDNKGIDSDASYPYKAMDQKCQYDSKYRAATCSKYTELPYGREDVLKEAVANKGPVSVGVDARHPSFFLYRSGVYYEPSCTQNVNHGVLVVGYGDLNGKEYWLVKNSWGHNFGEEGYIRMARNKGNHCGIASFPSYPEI
Sequence of cruzain, from T. cruzi (P25779 123-337 limits assumed): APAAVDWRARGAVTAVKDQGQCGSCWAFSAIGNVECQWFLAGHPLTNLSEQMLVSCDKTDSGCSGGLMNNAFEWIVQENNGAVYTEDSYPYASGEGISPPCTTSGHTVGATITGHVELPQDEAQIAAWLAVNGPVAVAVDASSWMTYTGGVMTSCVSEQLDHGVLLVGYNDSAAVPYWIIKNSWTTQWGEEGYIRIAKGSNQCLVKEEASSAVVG
T3 sequence (P07154 114-288 limits assumed): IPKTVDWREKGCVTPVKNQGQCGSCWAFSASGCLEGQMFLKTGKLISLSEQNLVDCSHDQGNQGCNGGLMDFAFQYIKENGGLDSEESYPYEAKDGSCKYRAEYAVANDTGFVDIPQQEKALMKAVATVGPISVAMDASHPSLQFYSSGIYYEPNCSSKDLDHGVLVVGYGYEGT
T3 sequence (P07154 291-334 limits assumed): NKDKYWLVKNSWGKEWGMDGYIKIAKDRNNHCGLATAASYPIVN

## O=C(NCCCC[C@@H](C=C(F)S(=O)(=O)c1ccccc1)NC(=O)[C@H](Cc1ccccc1)NC(=O)N1CCOCC1)OCc1ccccc1 [Mu-Phe-Lys(Z)fVSPh, (S)-7-(benzyloxycarbonyl)amino-3-(4-morpholinecarbonylphenylalanyl)amino-1-fluoro-1-phenylsulfonyl-1-heptene]
[1]
  kobs /[I]* (approximate second-order inactivation constant): 2,000 M^-1 sec^-1
[2]; 25° C., pH 6.5
  kobs /[I]* (approximate second-order inactivation constant): 10,700 M^-1 sec^-1

## CS(=O)(=O)/C=C/[C@@H](N)Cc1ccccc1.Cl [HCl.PheVSMe]
[3]; 3 uM
  percentage inhibition, L. donovani: 100%
[3]; 10 uM
  percentage inhibition, L. donovani: 100%
[3]; 30 uM
  percentage inhibition, L. donovani: 100%
[3]; 90 uM
  percentage inhibition, L. donovani: 100%
[4]; 3 uM
  percentage inhibition, T. cruzi: 0%
[4]; 10 uM
  percentage inhibition, T. cruzi: 0%
[4]; 30 uM
  percentage inhibition, T. cruzi: 0%
[4]; 90 uM
  percentage inhibition, T. cruzi: 17.3%
[5]; 3 uM
  percentage inhibition, T. brucei: 0%
[5]; 10 uM
  percentage inhibition, T. brucei: 0%
[5]; 30 uM
  percentage inhibition, T. brucei: 0%
[5]; 90 uM
  percentage inhibition, T. brucei: 0%

## O=C(N[C@@H](/C=C/S(=O)(=O)c1ccccc1)CCc1ccccc1)C(Cc1ccccc1)NC(=O)N1CCOCC1 (stereo partly drawn) [Mu-Phe-D-HphVSPh, (R)-(E)-3-(4-morpholinecarbonylphenylalanyl)amino-5-phenyl-1-phenylsulfonyl-1-pentene]
[6]
  kobs /[I]* (approximate second-order inactivation constant): 4,500 M^-1 sec^-1
[2]; 25° C., pH 6.5
  kobs /[I]* (approximate second-order inactivation constant): 68,500 M^-1 sec^-1

## O=C(NCCCC[C@@H](/C=C/S(=O)(=O)c1ccccc1)NC(=O)[C@H](Cc1ccccc1)NC(=O)N1CCOCC1)c1ccccc1 [Mu-Phe-Lys(Bz)VSPh, (S)-(E)-3-(4-morpholinecarbonylphenylalanyl)amino-7-benzoylamino-1-phenylsulfonyl-1-heptene]
[7]
  kobs /[I]* (approximate second-order inactivation constant): 60,000 M^-1 sec^-1
[6]
  kobs /[I]* (approximate second-order inactivation constant): 210,000 M^-1 sec^-1
[2]; 25° C., pH 6.5
  kobs /[I]* (approximate second-order inactivation constant): 2,500,000 M^-1 sec^-1

## CC(=O)N[C@@H](CC(C)C)C(=O)N[C@@H](CC(C)C)C(=O)N[C@H](/C=C/S(=O)(=O)c1ccccc1)Cc1ccc(O)cc1 [Ac-Leu-Leu-TyrVSPh, (S)-(E)-3-(acetylleucylleucyl)amino-4-(4-hydroxyphenyl)-1-phenylsulfonyl-1-butene]
[2]; 25° C., pH 6.5
  kinact/KI: 100000 M⁻¹ s⁻¹

## Cl.NC(C=CS(=O)(=O)c1ccccc1)CCCCNC(=O)OCc1ccccc1 (stereo not drawn) [HCl.(e-Z)LysVSPh]
[3]; 3 uM
  percentage inhibition, L. donovani: 100%
[3]; 10 uM
  percentage inhibition, L. donovani: 100%
[3]; 30 uM
  percentage inhibition, L. donovani: T
[3]; 90 uM
  percentage inhibition, L. donovani: T
[4]
  ED50, T. cruzi: 18.34 µM
[4]; 3 uM
  percentage inhibition, T. cruzi: 2.7%
[4]; 10 uM
  percentage inhibition, T. cruzi: 10.6%
[4]; 30 uM
  percentage inhibition, T. cruzi: 82.8%
[4]; 90 uM
  percentage inhibition, T. cruzi: 97.8%
[5]
  ED50, T. brucei: 8 µM
[5]; 1 uM
  percentage inhibition, T. brucei: 7.6%
[5]; 3 uM
  percentage inhibition, T. brucei: 13%
[5]; 10 uM
  percentage inhibition, T. brucei: 39.3%
[5]; 30 uM
  percentage inhibition, T. brucei: 100%
[5]; 90 uM
  percentage inhibition, T. brucei: 100%

## CC(=O)NC(Cc1ccc(O)cc1)C(=O)NC(Cc1ccc(O)cc1)C(=O)NC(C(=O)NC(C)C(=O)NC(C=CS(C)(=O)=O)CC(=O)O)C(C)C (stereo not drawn) [Ac-Tyr-Tyr-Val-Ala-AspVSMe] (Ac-YYVA-X1; configuration not given here)
[1]
  k/KI (kirr/KI): 0 M⁻¹ s⁻¹

## (S)-(E)-Ethyl8-(benzyloxycarbonyl)amino-4-(4-morpholinecarbonylphenylalanyl)amino-2-octenoate [Mu-Phe-Lys(Z)VEOEt]
[1]
  kirr: 0.13 s⁻¹
  k/KI (kirr/KI): 4100 M⁻¹ s⁻¹
[1]; corrected for substrate
  pKi: 4.49
[6]
  kirr: 0.87 s⁻¹
  pKi: 5.21
  k/KI (kirr/KI): 13,900 M^-1 sec^-1
[2]
  kirr: 0.13 s⁻¹
[2]; corrected for substrate
  pKi: 5.89
[2]; values without asterisk, 25° C., pH 6.5
  k/KI (kirr/KI): 100,000 M^-1 sec^-1

## Boc-phenylalanyl-homophenylalanyl-p-nitrostyryl
[2]; 25° C., pH 6.5
  kobs /[I]* (approximate second-order inactivation constant): 40,100 M^-1 sec^-1

## Cl.NC(Cc1ccccc1)C(=O)NC(C=CS(=O)(=O)c1ccccc1)CCc1ccccc1 (stereo not drawn) [HCl.Phe-HphVSPh]
[7]
  kobs /[I]* (approximate second-order inactivation constant): 14,600 M^-1 sec^-1
[2]; 25° C., pH 6.5
  kobs /[I]* (approximate second-order inactivation constant): 35,000 M^-1 sec^-1

## O=C(/C=C/[C@H](CCc1ccccc1)NC(=O)C(Cc1ccccc1)NC(=O)N1CCOCC1)NC(Cc1ccccc1)C(=O)O (stereo partly drawn) [Mu-Phe-HphVAM-PheOH, (S)-(E)-(N-phenylalanine)-4-(4-morpholinecarbonylphenylalanyl)amino-6-phenyl-2-hexenamide]
[1]
  kobs /[I]* (approximate second-order inactivation constant): 600 M⁻¹ s⁻¹
[2]; 25° C., pH 6.5
  kobs /[I]* (approximate second-order inactivation constant): 10,600 M^-1 sec^-1

## CN(C)S(=O)(=O)N[C@@H](Cc1ccccc1)C(=O)N[C@H](/C=C/S(=O)(=O)c1ccccc1)CCc1ccccc1 [DimSam-Phe-HphVSPh, (S)-(E)-3-(dimethylsulfamoylphenylalanyl)amino-5-phenyl-1-phenylsulfonyl-1-pentene]
[2]; 25° C., pH 6.5
  kinact/KI: 920000 M⁻¹ s⁻¹

## (S)-(E)-3-(4-morpholinecarbonylphenylalanyl)amino-1-(4-bromophenylsulfonyl)-5-phenyl-1-pentene [Mu-Phe-HphVSPhBr]
[1]
  kobs /[I]* (approximate second-order inactivation constant): 15,500 M^-1 sec^-1

## Br.CCOC(=O)/C=C/[C@H](CCCCN)NC(=O)[C@H](Cc1ccccc1)NC(=O)N1CCOCC1 [Mu-Phe-LysVEOEt.HBr, (S)-(E)-Ethyl 8-amino-4-(4-morpholinecarbonylphenylalanyl)amino-2octenoate hydrobromide]
[1]
  kobs /[I]* (approximate second-order inactivation constant): 650 M⁻¹ s⁻¹
[6]
  kirr: 0.085 s⁻¹
  pKi: 4.62
  k/KI (kirr/KI): 3500 M⁻¹ s⁻¹

## (S)-(E)-3-(4-morpholinecarbonyl-2-naphthylalanyl)amino-5-phenyl-1-phenylsulfonyl-1-pentene [Mu-Np-HphVSPh]
[7]; values without asterisk
  k/KI (kirr/KI): 218,000 M^-1 sec^-1
[1]
  kobs /[I]* (approximate second-order inactivation constant): 86,000 M^-1 sec^-1
[6]
  kobs /[I]* (approximate second-order inactivation constant): 1,000,000 M^-1 sec^-1

## CC(C)C[C@H](NC(=O)OCc1ccccc1)C(=O)N[C@H](/C=C/S(=O)(=O)c1ccccc1)Cc1ccccc1
[2]; 25° C., pH 6.5
  kobs /[I]* (approximate second-order inactivation constant): 3,000,000 M^-1 sec^-1
